Results taken from US20230263851A1, “PROTECTIVE FORMULATIONS” (priority 2022, published 2023).

System: upside-down jellyfish, family Cassiopeidae
Assay: In vivo field study: perceived stinging sensation after contact with upside-down jellyfish
Conditions: for Sting score, Left calf: skin location left calf; for Average Sting Score: average over tested skin locations; for Sting score, Lower arm, left: perceived sting: 0 no sting, compound in SPF15 TeekaTan oil-in-water sunscreen base, skin location lower arm; for Reduction of the stinging sensation (in words): summary of the field study; for Sting score, Upper arm, left: skin location upper arm
Method: An in-vivo field study was performed using upside-down jellyfish, family Cassiopeidae. Rubidium iodide and dl-menthol were compared to lanthanide salts and another alkali salt, cesium iodide, for their ability to reduce the dermal irritation following contact with stinging Cnidaria. The base formulation was a commercial SPF15 “TeekaTan™” chemical oil-in-water sunscreen. The null was bare skin. The test subjects reported their perceived stinging sensation from the venomous cassiosomes as no sting (score 0), mild sting (score 1), definite sting (score 2).

[1] = 0 no sting, 1 mild sting, 2 definite sting, SPF15 sunscreen base

| SMILES | Sting score, Left calf [1] | Sting score, Left cheek (face) (0 no sting, 1 mild sting, 2 definite sting, SPF15 sunscreen base, skin location left cheek (face)) | Sting score, Left side of chest, underarm (0 no sting, 1 mild sting, 2 definite sting, SPF15 sunscreen base, skin location left side of chest, underarm) | Sting score, Left side of lips, upper and lower (0 no sting, 1 mild sting, 2 definite sting, SPF15 sunscreen base, skin location left side of lips, upper and lower) | Sting score, Right arm joint (0 no sting, 1 mild sting, 2 definite sting, SPF15 sunscreen base, skin location right arm joint) | Sting score, Right cheek (face) (0 no sting, 1 mild sting, 2 definite sting, SPF15 sunscreen base, skin location right cheek (face)) | Sting score, Right side of chest, underarm (0 no sting, 1 mild sting, 2 definite sting, SPF15 sunscreen base, skin location right side of chest, underarm) | Sting score, Stomach (0 no sting, 1 mild sting, 2 definite sting, SPF15 sunscreen base, skin location stomach) | Average Sting Score [1] | Sting score, Lower arm, left (1 mild sting, 2 definite sting) | Reduction of the stinging sensation (in words) | Sting score, Upper arm, left [1] | Sting score, Left arm joint (0 no sting, 1 mild sting, 2 definite sting, SPF15 sunscreen base, skin location left arm joint) |
| --- | --- | --- | --- | --- | --- | --- | --- | --- | --- | --- | --- | --- | --- |
| CC(C)[C@@H]1CC[C@@H](C)C[C@H]1O (racemic) [DL-Menthol, DL menthol] | 0 | 0 | 0 | 0 | 0.75 | 0 | 0 | 0 | 0.23 | 0 | second most effective compound tested |  |  |
| [Cs+].[I-] [CsI, cesium iodide, reference compound] |  |  |  |  |  |  |  |  | 2.00 |  | did not appreciably reduce the stinging sensation | 2 |  |
| [Cl][Nd]([Cl])[Cl] [NdCl3, reference compound] |  |  |  |  |  |  |  |  | 2.00 | 2 |  |  |  |
| [Cl][Pr]([Cl])[Cl] [PrCl3, reference compound] |  |  |  |  |  |  |  |  | 1.00 | 2 |  | 0 |  |
| [I-].[Rb+] [RuI, rubidium iodide] | 0 |  |  |  |  |  |  |  | 0.00 | 0 |  | 0 | 0 |
